Test results from patent US11479617B2, “Chelator-functionalized glycosaminoglycans” (priority 2018, dated 2022).

Row | Compound | maximal inhibitory concentration (NIH-3T3 fibroblasts) [µg/mL] | maximal inhibitory concentration (RAW 264.7 macrophages) [µg/mL] | cytocompatibility (cell enumeration, metabolism, toxicity) (NIH-3T3 fibroblasts) | cytocompatibility (cell enumeration, metabolism, toxicity) (RAW 264.7 macrophages)
1 | O.O.O.O.O.O.[Cl-].[Cl-].[Co+2] [CoCl2.6H2O] | ~25 | ~50 | – | –
2 | hyaluronic acid [HA] | – | – | cytocompatible | cytocompatible
